# Source: paper PMC8039949, “A novel small-molecule PROTAC selectively promotes tau clearance to improve cognitive functions in Alzheimer-like models” (Theranostics, 2021)
# Peptide text beside a SMILES is read from it. * marks the point of attachment. Cbz = O=C(OCc1ccccc1)*
# Molecular target: T1, human tau (hTau) (Homo sapiens, UniProt P10636)
# T1 construct: expressed in transfected cells
# Experiment: Tau clearance in HEK293-hTau cells by Western blotting
# Format: cell-based
# Conditions: HEK293-hTau cells; 10 μM MG132 with 20 μM C004019; 24 h
# Description: SH-SY5Y human neuroblastoma cells were cultured in 90% DME/F-12 medium (HyClone, SH30023.01) with 10% fetal bovine serum (FBS) (Biological Industries, 04-001-1ACS) and penicillin (100 U/mL)/ streptomycin (100 μg/mL) in a 37 °C incubator with humidified atmosphere of 5% CO2. Human embryonic kidney 293 cells (HEK293) or HEK293 with stable expression of wild-type full-length human tau (termed as HEK293-hTau) were cultured in 90% DMEM/High Glucose medium (HyClone, SH30022.01) containing 10% FBS and 200 μg/mL G418 (ThermoFisher Scientific, 10131027), in a humidified atmosphere of 5% CO2 at 37 °C. Neofect (DNA transfection reagent, TF20121201) was used for plasmids transfection. The cells were placed onto 6-well or 12-well plates. Plasmids (EGFP-hTau or 3xFlag-hTau or the vector), neofect and Opti-MEM medium (Gibco, 31985-070) were made into a mixture in a ratio of 1 μg: 1 μL : 100 μL and then added into each well of the plate. To inhibit proteasome activity, HEK293-hTau cells were cultured with DMEM/High medium containing 20 μM C004019 with or without 10 μM MG132, or the same volume of vehicle (DMSO) for 24 h at 37 °C. To induce tau hyperphosphorylation, SH-SY5Y cells were cultured with DME/F-12 medium containing 10 μM C004019 with or without 1 μM GFX and 1 μM WO for 24 h at 37 °C.
# The cells or hippocampal/cortex tissues were homogenized for ~ 30 min on ice in buffer [50 mM Tris·HCl pH 7.4-7.5, 100 mM NaCl, 1% (vol/vol) Triton X-100, 5 mM EDTA, 1:100 PMSF, 1:1,000 protease inhibitor cocktail containing 4-(2-Aminoethyl)-benzenesulfonyl fluoride hydrochloride, aprotinin, bestatin, leupeptin, E-64, and pepstatin A stored at 4 °C], and then centrifuged at 12,000 × g at 4 °C for 20 min. The supernatant was collected and the protein levels were analyzed using bicinchoninic acid (BCA, KF016, Sigma-Aldrich) by following the manufacturer's instruction (served as soluble protein). The pellet was further incubated with 8% (wt/vol) SDS buffer at 4 °C and then treated by ultrasonic wave to reach a complete resuspension. […] Immunoreactive bands were quantitatively analyzed by Image J2x software.
# T1 sequence (P10636 1-441 isoform P10636-8): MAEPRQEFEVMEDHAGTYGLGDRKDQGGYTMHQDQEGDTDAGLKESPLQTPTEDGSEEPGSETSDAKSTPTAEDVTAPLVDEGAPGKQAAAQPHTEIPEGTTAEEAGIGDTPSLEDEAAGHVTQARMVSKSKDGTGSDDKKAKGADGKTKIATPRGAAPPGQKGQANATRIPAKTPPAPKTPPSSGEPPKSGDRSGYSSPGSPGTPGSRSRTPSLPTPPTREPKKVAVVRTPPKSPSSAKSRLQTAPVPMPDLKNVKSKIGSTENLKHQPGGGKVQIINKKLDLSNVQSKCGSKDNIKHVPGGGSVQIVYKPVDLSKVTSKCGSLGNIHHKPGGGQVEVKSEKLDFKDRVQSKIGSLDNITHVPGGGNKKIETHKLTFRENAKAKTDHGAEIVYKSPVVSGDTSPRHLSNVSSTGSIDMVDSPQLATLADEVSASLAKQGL
smiles,measurement,value
"CC(C)C[C@@H](C=O)NC(=O)[C@H](CC(C)C)NC(=O)[C@H](CC(C)C)NC(=O)OCc1ccccc1 [MG132, reference compound] (Cbz-Leu-Leu-Leu-aldehyde)",effect on C004019-induced clearance of tau (proteasome inhibition),abolished
